# From patent publication US10022376B2 (Pfizer Inc., priority 2014, dated 2018)
# Counter-ions that a name gives are not always drawn.
# Tested on: rhIFNγ stimulated STAT-3 phosphorylation in the A549 human epithelial cell line
# Assay: A549 Cell Assay: Inhibition of pSTAT3
# Format: cell-based
# Settings: A549 cells
# Procedure: A549 Cell Assay: Inhibition of pSTAT3
# An assay measuring the efficacy of JAK inhibitors on the functional response of recombinant human interferon γ (rhIFNγ) stimulated STAT-3 phosphorylation in the A549 human epithelial cell line.
# A549 cells (ATCC #CCL-185), were plated at 30,000 cells/well in 96 well flat bottomed tissue culture plates (BD#353072) in 200 μL of growth medium (DMEM, Pfizer media prep, with 10% Fetal Bovine Serum, Sigma #F4135, 2 mM L-Glutamine, Pfizer media prep, 100 U/mL penicillin, Pfizer media prep, and 200 μg/ml streptomycin, Pfizer media prep), and cultured at 37° C., 5% CO2 incubator for 18 hours. Growth medium was removed by vacuum aspiration (V&P Scientific #vp187 bp-60), and 90 μL of pre-warmed assay medium (DMEM with 0.2% BSA, Miltenyi #130-091-376) was added to each well and incubated for 15 minutes at 37° C. 10 μL of vehicle control or test compound (final concentration range of 0.3 nM to 10 μM with 0.1% DMSO) was added to the cells. Plates were incubated at 37° C. for 1 hour. After compound incubation, 10 μL of 220 ng/mL recombinant human IFNγ (R&D Systems #285-IF, final rhIFNγ concentration of 20 ng/mL) was added to the cells and plates were incubated for 30 minutes at 37° C. Wells containing A549 cells, medium with 0.1% DMSO and no rhIFNγ were used as background controls. After rhIFNγ stimulation, media was aspirated from each well and 35 μL/well of iced-cold MSD lysis buffer containing protease and phosphatase inhibitors from Phospho-STAT3 Tyr705 assay kit (Meso-Scale Discovery #K150DID) was added to each well. Plates were incubated at 4° C. with shaking for 30 minutes. Cell lysates were assayed following the MSD Phospho-STAT3 Tyr705 assay kit protocol to detect pSTAT3.
# Data were collected and transformed into percent inhibition and calculated using the following formula: […]
row,SMILES,IC50 [nM]
1,CCc1cc(O)c(F)cc1-c1cc2[nH]nc(-c3nc(C)c(C)[nH]3)c2c(NCc2ccccc2N(C)S(C)(=O)=O)n1 [Example 158],31.3
2,"CCc1cc(O)c(F)cc1-c1nc(NCc2ccccc2N(C)S(C)(=O)=O)c2cn[nH]c2n1 [Example 155, N-[2-({[6-(2-Ethyl-5-fluoro-4-hydroxyphenyl-1H-pyrazolo[3,4-d]pyrimidin-4-yl]amino}methyl)phenyl]-N-methylmethanesulfonamide hydrochloride]",30.1

# Same assay, conditions: Homo sapiens; A549 cells
row,SMILES,IC50 [nM]
1,"CNC(=O)c1n[nH]c2cc(-c3cc(F)c(O)cc3CC(F)(F)F)nc(NCC(C)C)c12 [Example 16, 6-[5-fluoro-4-hydroxy-2-(2,2,2-trifluoroethyl)phenyl]-N-methyl-4-[(2-methylpropyl)amino]-1H-pyrazolo[4,3-c]pyridine-3-carboxamide]",65.1
2,"CNC(=O)c1n[nH]c2cc(-c3cc(F)c(O)cc3CC(F)(F)F)nc(NCc3nccnc3N(C)S(C)(=O)=O)c12 [Example 51, 6-[5-fluoro-4-hydroxy-2-(2,2,2-trifluoroethyl)phenyl]-N-methyl-4-[({3-[methyl(methylsulfonyl)amino]pyrazin-2-yl}methyl)amino]-1H-pyrazolo[4,3-c]pyridine-3-carboxamide]",182
3,"CCc1cc(O)c(F)cc1-c1cc2[nH]nc(C(=O)NC)c2c(NCc2ccccc2N(C)S(N)(=O)=O)n1 [Example 73, 6-(2-ethyl-5-fluoro-4-hydroxyphenyl)-N-methyl-4-({2-[methyl(sulfamoyl)amino]benzyl}amino)-1H-pyrazolo[4,3-c]pyridine-3-carboxamide]",35.6
4,"CCN(c1ncccc1CNc1nc(-c2cc(F)c(O)cc2CC(F)(F)F)cc2[nH]nc(C(N)=O)c12)S(C)(=O)=O [Example 52, 4-[({2-[ethyl(methylsulfonyl)amino]pyridin-3-yl}methyl)amino]-6-[5-fluoro-4-hydroxy-2-(2,2,2-trifluoroethyl)phenyl]-1H-pyrazolo[4,3-c]pyridine-3-carboxamide]",74.3
5,"CCN(c1ccc(O)cc1CNc1nc(-c2cc(F)c(O)cc2CC(F)(F)F)cc2[nH]nc(C(N)=O)c12)S(=O)(=O)c1ccccc1 [Example 43, 4-({2-[ethyl(phenylsulfonyl)amino]-5-hydroxybenzyl}amino)-6-[5-fluoro-4-hydroxy-2-(2,2,2-trifluoroethyl)phenyl]-1H-pyrazolo[4,3-c]pyridine-3-carboxamide]",764
6,"CCc1cc(O)c(F)cc1-c1cc2[nH]nc(-c3nc(C)c[nH]3)c2c(NCc2ccccc2N(C)S(C)(=O)=O)n1 [Example 159, N-[2-({[6-(2-Ethyl-5-fluoro-4-hydroxyphenyl)-3-(4-methyl-1H-imidazol-2-yl)-1H-pyrazolo[4,3-c]pyridin-4-yl]amino}methyl)phenyl]-N-methylmethanesulfonamide]",18.7
7,"CN(c1ncc(F)cc1CNc1nc(-c2cc(F)c(O)cc2CC(F)(F)F)cc2[nH]nc(C(N)=O)c12)S(C)(=O)=O [Example 78, 6-[5-Fluoro-4-hydroxy-2-(2,2,2-trifluoroethyl)phenyl]-4-[({5-fluoro-2-[methyl(methyl-sulfonyl)amino]pyridin-3-yl}methyl)amino]-1H-pyrazolo[4,3-c]pyridine-3-carboxamide]",27.2
8,"CCc1cc(O)c(F)cc1-c1cc2[nH]nc(C(=O)NC)c2c(NCc2cc(Cl)ccc2N(C)S(C)(=O)=O)n1 [Example 6, 4-({5-chloro-2-[methyl(methylsulfonyl)amino]benzyl}amino)-6-(2-ethyl-5-fluoro-4-hydroxyphenyl)-N-methyl-1H-pyrazolo[4,3-c]pyridine-3-carboxamide]",23.4
9,"CCN(c1ccccc1CNc1nc(-c2cc(F)c(O)cc2CC(F)(F)F)cc2[nH]nc(C(N)=O)c12)S(C)(=O)=O [Example 90, 4-({2-[ethyl(methylsulfonyl)amino]benzyl}amino)-6-[5-fluoro-4-hydroxy-2-(2,2,2-trifluoroethyl)phenyl]-1H-pyrazolo[4,3-c]pyridine-3-carboxamide]",30.4
10,"CNC(=O)c1n[nH]c2cc(-c3cc(F)c(O)cc3CC(F)(F)F)nc(NCc3ccccc3N(C)S(=O)(=O)c3cn[nH]c3)c12 [Example 58, 6-(5-fluoro-4-hydroxy-2-(2,2,2-trifluoroethyl)phenyl)-N-methyl-4-((2-(N-methyl-1H-pyrazole-4-sulfonamido)benzyl)amino)-1H-pyrazolo[4,3-c]pyridine-3-carboxamide]",174
11,"CNC(=O)c1n[nH]c2cc(-c3cc(F)c(O)cc3CC(F)(F)F)nc(NCc3ccccc3N(C)S(=O)(=O)CCOC)c12 [Example 60, 6-[5-fluoro-4-hydroxy-2-(2,2,2-trifluoroethyl)phenyl]-4-[(2-{[(2-methoxyethyl)sulfonyl](methyl)amino}benzyl)amino]-N-methyl-1H-pyrazolo[4,3-c]pyridine-3-carboxamide]",34.4
12,"CNC(=O)c1n[nH]c2cc(-c3cc(F)c(O)cc3CC(F)(F)F)nc(NCc3nccnc3N(C)S(=O)(=O)c3ccccc3)c12 [Example 44, 6-[5-fluoro-4-hydroxy-2-(2,2,2-trifluoroethyl)phenyl]-N-methyl-4-[({3-[methyl(phenylsulfonyl)amino]pyrazin-2-yl}methyl)amino]-1H-pyrazolo[4,3-c]pyridine-3-carboxamide]",59.7
13,"CS(=O)(=O)N(CCO)c1ccccc1CNc1nc(-c2cc(F)c(O)cc2CC(F)(F)F)cc2[nH]nc(C(N)=O)c12 [Example 27, 6-[5-fluoro-4-hydroxy-2-(2,2,2-trifluoroethyl)phenyl]-4-({2-[(2-hydroxyethyl)(methylsulfonyl)amino]benzyl}amino)-1H-pyrazolo[4,3-c]pyridine-3-carboxamide]",874
14,"CN(c1ccccc1CNc1nc(-c2cc(F)c(O)cc2CC(F)(F)F)cc2[nH]ncc12)S(C)(=O)=O [Example 148, N-{2-[({6-[5-Fluoro-4-hydroxy-2-(2,2,2-trifluoroethyl)phenyl]-1H-pyrazolo[4,3-c]pyridin-4-yl}amino)methyl]phenyl}-N-methylmethanesulfonamide]",14.9
15,"CCc1cc(O)c(F)cc1-c1nc(NCc2ccccc2N(C)S(=O)(=O)c2ccccc2)c2c(C(N)=O)n[nH]c2n1 [Example 95, 6-(2-Ethyl-5-fluoro-4-hydroxyphenyl)-4-((2-(N-methylphenylsulfonamido)benzyl)amino)-1H-pyrazolo[3,4-d]pyrimidine-3-carboxamide]",59.9
16,"CCc1cc(O)c(F)cc1-c1cc2[nH]nc(C(=O)NC)c2c(NCc2ccccc2N(CC)S(=O)(=O)CC)n1 [Example 2, 4-({2-[ethyl(ethylsulfonyl)amino]benzyl}amino)-6-(2-ethyl-5-fluoro-4-hydroxyphenyl)-N-methyl-1H-pyrazolo[4,3-c]pyridine-3-carboxamide]",46.8
17,"CCc1cc(O)c(F)cc1-c1cc2[nH]nc(C(=O)NC)c2c(NCc2ccc(O)cc2N(C)S(C)(=O)=O)n1 [Example 29, 6-(2-Ethyl-5-fluoro-4-hydroxyphenyl)-4-({4-hydroxy-2-[methyl (methylsulfonyl)amino]benzyl}amino)-N-methyl-1H-pyrazolo[4,3-c]pyridine-3-carboxamide]",86.9
18,"CCN(c1nccnc1CNc1nc(-c2cc(F)c(O)cc2CC(F)(F)F)cc2[nH]nc(C(=O)NC)c12)S(C)(=O)=O [Example 45, 4-[({3-[ethyl(methylsulfonyl)amino]pyrazin-2-yl}methyl)amino]-6-[5-fluoro-4-hydroxy-2-(2,2,2-trifluoroethyl)phenyl]-N-methyl-1H-pyrazolo[4,3-c]pyridine-3-carboxamide]",46.5
19,"Oc1cc(CC(F)(F)F)c(-c2nc(NCC3CC3)c3cn[nH]c3n2)cc1F [Example 151, 4-{4-[(cyclopropylmethyl)amino]-1H-pyrazolo[3,4-d]pyrimidin-6-yl}-2-fluoro-5-(2,2,2-trifluoroethyl)phenol]",133
20,"CCN(c1ccc(C)cc1CNc1nc(-c2cc(F)c(O)cc2CC(F)(F)F)cc2[nH]nc(C(N)=O)c12)S(C)(=O)=O [Example 91, 4-({2-[ethyl(methylsulfonyl)amino]-5-methylbenzyl}amino)-6-[5-fluoro-4-hydroxy-2-(2,2,2-trifluoroethyl)phenyl]-1H-pyrazolo[4,3-c]pyridine-3-carboxamide]",26.3
21,"CCc1cc(O)c(F)cc1-c1cc2[nH]ncc2c(NCc2ccccc2N(CC)S(=O)(=O)CC)n1 [Example 136, N-ethyl-N-[2-({[6-(2-ethyl-5-fluoro-4-hydroxyphenyl)-1H-pyrazolo[4,3-c]pyridin-4-yl]amino}-methyl)phenyl]ethanesulfonamide hydrochloride]",13.3
22,"Oc1cc(CC(F)(F)F)c(-c2nc(NCCC3CC3)c3cn[nH]c3n2)cc1F [Example 152, 4-{4-[(2-cyclopropylethyl)amino]-1H-pyrazolo[3,4-d]pyrimidin-6-yl}-2-fluoro-5-(2,2,2-trifluoroethyl)phenol]",133
